Here are results for 24 molecules from ChEMBL document CHEMBL4257535, “Design, synthesis and biological evaluation of AKT inhibitors bearing a piperidin-4-yl appendant” (Medchemcomm, 2018).

Data set [1] addresses T1, RAC-alpha serine/threonine-protein kinase (Homo sapiens, UniProt P31749). Put plainly: Inhibition of AKT1 (unknown origin) at 0.1 uM using biotin-labelled STK as substrate measured after 45 mins by HTRF method relative to control. A general note: In TR-FRET formats the signal depends on donor and acceptor labels being close together.
The subject of a further data set is PC-3. Put plainly: Antiproliferative activity against human PC3 cells after 72 hrs by MTT assay. To be noted: PC-3, 72 h. It counts as functional, cell-based.
For data set [2], the target named is T1, RAC-alpha serine/threonine-protein kinase. Put plainly: Inhibition of AKT in human PC3 cells assessed as reduction in GSK3beta phosphorylation at 1 to 10 uM after 4 hrs by Western blot analysis. It counts as cell-based. (In western blotting, separated proteins are transferred to a membrane and probed.)
Data set [3] shares this target. The data set can be described thus: Inhibition of AKT1 (unknown origin) at 1 uM using biotin-labelled STK as substrate measured after 45 mins by HTRF method relative to control.
For data set [4] the target is unchanged. The data set can be described thus: Inhibition of AKT1 (unknown origin) using biotin-labelled STK as substrate measured after 45 mins by HTRF method.
The target is the same in data set [5]. The data set can be described thus: Inhibition of AKT1 (unknown origin) at 50 nM using biotin-labelled STK as substrate measured after 45 mins by HTRF method relative to control.
Data set [6] in a line: in vitro. Set-up: dose or concentration left out as unconfirmed. To be noted: human, liver microsomes. For orientation: Microsomes from liver hold many membrane-bound enzymes, among them those of drug oxidation.
Description: Intrinsic clearance in human liver microsomes at 10 mM preincubated for 10 mins followed by NADPH addition and measured after 5 to 60 mins by LC-MS analysis
Data set [7] in a line: in vitro. Set-up: dose or concentration left out as unconfirmed. To be noted: human, liver microsomes. The source holds these as a separate data set.
Description: Half life in human liver microsomes at 10 mM preincubated for 10 mins followed by NADPH addition by LC-MS analysis
The nature of data set [8]: in vitro. Details: dose or concentration left out as unconfirmed. To be noted: human, liver microsomes. The source holds these as a separate data set.
Description: Stability in human liver microsomes assessed as parent compound remaining at 10 mM preincubated for 10 mins followed by NADPH addition and measured after 60 mins by LC-MS analysis

Molecules are shown by their SMILES. Activity calls are given as the source filed them. The rule behind the calls is not given here. Where only a bound is given, the exact number is not on record here.

T1 sequence (P31749 whole entry): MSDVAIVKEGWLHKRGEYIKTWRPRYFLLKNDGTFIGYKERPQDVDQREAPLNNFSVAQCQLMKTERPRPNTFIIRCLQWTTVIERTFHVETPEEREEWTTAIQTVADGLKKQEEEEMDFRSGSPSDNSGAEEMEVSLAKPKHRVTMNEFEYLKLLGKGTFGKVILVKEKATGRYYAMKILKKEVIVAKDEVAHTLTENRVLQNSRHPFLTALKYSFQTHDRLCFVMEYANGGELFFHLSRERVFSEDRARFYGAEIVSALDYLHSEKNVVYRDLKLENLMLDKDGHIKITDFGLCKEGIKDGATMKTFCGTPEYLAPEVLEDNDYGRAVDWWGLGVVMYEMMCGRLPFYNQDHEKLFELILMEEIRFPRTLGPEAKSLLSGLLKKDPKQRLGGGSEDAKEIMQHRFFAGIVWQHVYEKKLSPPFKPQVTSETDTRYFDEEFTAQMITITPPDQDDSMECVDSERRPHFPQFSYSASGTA

Usually inhibition stands for the change of the read-out against control, counted positive when it falls. Usually IC50 stands for the concentration that inhibits the measured activity by half. Regarding `CCn1c(-c2nonc2N)nc2c(C#CC(C)(C)O)ncc(OC[C@H]3CCCNC3)c21` [GSK-690693], the inhibition is 98.5% in data set [1] and 99.5% in data set [3]. The molecule further registered an IC50 with PC-3 of 14.1 µM. Besides, in data set [2], the inhibition entry is “Active”.
Regarding `O=C(N1CCN(c2ncnc3[nH]nc(Cl)c23)CC1)C1(c2ccc(F)cc2)CCNCC1`, the inhibition in data set [1] turned out to be 60.9%; in data set [3], 86.7%. In addition, in the data set with PC-3, the IC50 was found to be 37.4 µM.
As to `O=C(N1CCN(c2ncnc3[nH]nc(Br)c23)CC1)C1(c2ccc(Cl)cc2)CCNCC1`, the figures for the inhibition in data set [1] and in data set [3] were 86.7% and 96.7%, respectively. The figures for the half-maximal inhibitory concentration (IC50) (in data set [4]; in the data set on PC-3) were 0.0269 µM and 9.8 µM, respectively.
The molecule `O=C(N1CCN(c2ncnc3[nH]cnc23)CC1)C1(c2ccc(F)cc2)CCNCC1` returned a half-inhibitory concentration (IC50) with PC-3 greater than 40 µM. The molecule also came in with an inhibition in data set [3] of 94.2%.
The like results for `O=C(N1CCN(c2ncnc3[nH]cnc23)CC1)C1(c2ccc(Br)cc2)CCNCC1` were, in that order, greater than 40 µM and 68%.
Molecule `O=C(N1CCN(c2ncnc3[nH]cnc23)CC1)C1(c2ccc(Cl)c(Cl)c2)CCNCC1` had a half-inhibitory concentration (IC50) in the data set with PC-3 of 33.9 µM. The molecule further had an inhibition in [3] of 51.4%.
As for `O=C(N1CCN(c2ncnc3[nH]ncc23)CC1)C1(c2ccc(Cl)cc2)CCNCC1`, the IC50 in the data set with PC-3 was greater than 40 µM. In addition, the inhibition in [3] is 38.7%.
The like results for `O=C(N1CCN(c2ncnc3ccccc23)CC1)C1(c2ccc(Br)cc2)CCNCC1` were, in that order, 22.8 µM and 6.1%.
As to `O=C(N1CCN(c2ncnc3[nH]nc(Br)c23)CC1)C1(c2ccc(Cl)c(Cl)c2)CCNCC1`, the inhibition stood at 90.9% in data set [1] and 93.8% in [3]. For the same molecule, the half-maximal inhibitory concentration (IC50) in data set [4] was found to be 0.0305 µM; in the data set with PC-3 it was 10.3 µM.
For `O=C(Cc1ccc(Cl)cc1)N1CCN(c2ncnc3[nH]cc(Br)c23)CC1`, in the data set on PC-3, the midpoint of inhibition, the IC50, lay at 21.1 µM. Further, the inhibition in data set [5] is 69.7%.
Usually CLint scaled stands for the rate of metabolic loss divided by the concentration. Usually microsomal CLint stands for a measure of how fast metabolising enzymes remove a compound, apart from limits set by blood flow. As a reminder, the half-life is the time in which the quantity being followed falls by half. Take `O=C(O)Cc1ccccc1Nc1c(Cl)cccc1Cl` [DICLOFENAC]: in “in vitro [6]”, the intrinsic clearance (CLint scaled) came to 123 mL/min/kg and the microsomal CLint stood at 136 µL/min/mg. This molecule gave a half-life in the data set “in vitro [7]” of 10.2 min.
Take `O=C(N1CCN(c2ncnc3ccccc23)CC1)C1(c2ccc(F)cc2)CCNCC1`: in the data set on PC-3, it took 13.7 µM to reach half-maximal inhibition (IC50). This molecule also registered an inhibition in data set [3] of 23%.
By amount remaining is commonly meant what is left of the initial amount, in per cent. In the data set “in vitro [6]”, `C[C@]12CC[C@H]3[C@@H](CCC4=CC(=O)CC[C@@]43C)[C@@H]1CC[C@@H]2O` [TESTOSTERONE] gave an intrinsic clearance (CLint scaled) of 74 mL/min/kg and a microsomal CLint of 82.2 µL/min/mg. Also, the share remaining at 1 h in the data set “in vitro [8]” was found to be 8.1%. For the same molecule, the half-life in “in vitro [7]” is 16.9 min.
Turning to `O=C(N1CCN(c2ncnc3ccccc23)CC1)C1(c2ccc(Cl)c(Cl)c2)CCNCC1`, the IC50 with PC-3 came to 14 µM. Also, in data set [3], the inhibition turned out to be 21.9%.
In the data set with PC-3, `O=C(Cc1ccc(Cl)c(Cl)c1)N1CCN(c2ncnc3[nH]cc(Br)c23)CC1` gave an IC50 of 31.5 µM. Moreover, the inhibition in data set [5] was determined as 65.5%.
Turning to `O=C(N1CCN(c2ncnc3[nH]cnc23)CC1)C1(c2ccc(Cl)cc2)CCNCC1`, the 50% inhibitory concentration (IC50) with PC-3 was greater than 40 µM. The molecule also had an inhibition in data set [3] of 45.6%.
Turning to `O=C(N1CCN(c2ncnc3[nH]nc(Cl)c23)CC1)C1(c2ccc(Cl)cc2)CCNCC1`, the values for the inhibition in data set [1] and in data set [3] were 83.4% and 91.9%, respectively. Also, the IC50 in [4] was found to be 0.0666 µM; with PC-3, 19.4 µM.
The like results for `O=C(N1CCN(c2ncnc3[nH]nc(Cl)c23)CC1)C1(c2ccc(Br)cc2)CCNCC1` were, in that order, 84.5%, 95.4%, 0.0329 µM and 32.4 µM.
Turning to `O=C(N1CCN(c2ncnc3[nH]ncc23)CC1)C1(c2ccc(Br)cc2)CCNCC1`, the half-inhibitory concentration (IC50) in the data set on PC-3 is greater than 40 µM. Also, the inhibition in data set [3] worked out at 11.6%.
Turning to `O=C(N1CCN(c2ncnc3[nH]nc(Br)c23)CC1)C1(c2ccc(F)cc2)CCNCC1`, the values for the inhibition in data set [1] and in [3] were 53.3% and 93.2%, respectively. Moreover, 36.6 µM corresponded to half-maximal inhibition with PC-3 (IC50).
As to `O=C(N1CCN(c2ncnc3[nH]nc(Br)c23)CC1)C1(c2ccc(Br)cc2)CCNCC1`, the inhibition in data set [1] was found to be 90.6%; in [3] it was 96.5%. In addition, the IC50 came to 0.0519 µM in [4] and 15 µM with PC-3.
Turning to `O=C(N1CCN(c2ncnc3[nH]ncc23)CC1)C1(c2ccc(F)cc2)CCNCC1`, the IC50 in the data set with PC-3 is greater than 40 µM. For the same molecule, the inhibition in [3] worked out at 7.4%.
On the same counts, the results for `O=C(N1CCN(c2ncnc3[nH]ncc23)CC1)C1(c2ccc(Cl)c(Cl)c2)CCNCC1` are greater than 40 µM and 52.1%.
Regarding `O=C(N1CCN(c2ncnc3ccccc23)CC1)C1(c2ccc(Cl)cc2)CCNCC1`, in the data set on PC-3, the IC50 is greater than 40 µM. In data set [3], this molecule gave an inhibition of 34.2%.
